Measured values taken from patent publication US20240299385A1 (ReWind Therapeutics NV, priority 2021, published 2024).

Molecular target: T1, human GPR17 receptor (Homo sapiens, UniProt Q13304)
T1 construct: host or cells: HEK-293
Assay: Calcium mobilization functional assay (Fluo-8, FLIPR TETRA) in HEK-293 hGPR17 (Gα-q assay)
Format: cell-based
Conditions: antagonism of MDL29,951 (~EC80) induced Ca2+ signal; cell line (HEK-293 hGPR17 or HEK-293 Suchi5 hGPR17) not given
Summary of the method: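 Fluo-8-loaded HEK-293 hGPR17 cells (60 min dye loading, room temperature) were preincubated with compound for twenty minutes, then challenged with agonist MDL29,951 at ~EC80, 500 nM. Intracellular calcium release via Gα-q was recorded as FLIPR fluorescence for a further 2 minutes; compounds tested in duplicate.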

T1 sequence (Q13304 whole entry): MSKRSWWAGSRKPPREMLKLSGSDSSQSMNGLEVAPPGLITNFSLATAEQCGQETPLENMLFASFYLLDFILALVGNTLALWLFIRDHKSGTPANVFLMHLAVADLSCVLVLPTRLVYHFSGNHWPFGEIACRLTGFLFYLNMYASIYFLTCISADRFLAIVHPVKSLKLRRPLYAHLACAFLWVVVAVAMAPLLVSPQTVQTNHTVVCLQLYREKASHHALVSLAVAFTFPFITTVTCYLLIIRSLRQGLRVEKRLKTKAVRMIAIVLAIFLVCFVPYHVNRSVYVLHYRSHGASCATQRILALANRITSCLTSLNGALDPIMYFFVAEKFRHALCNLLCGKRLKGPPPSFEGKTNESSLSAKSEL

Row | IC50 | Structure (SMILES)
1 | < 0.5 µM | N#Cc1ccc(NS(=O)(=O)c2c[nH]c(-c3cc(Cl)ccc3Cl)c2)c(F)c1 [Cpd 260, N-(4-cyano-2-fluoro-phenyl)-5-(2,5-dichlorophenyl)-1H-pyrrole-3-sulfonamide]
2 | 0.5 to 5 µM | Cc1cc(Cl)ccc1-c1cc(S(=O)(=O)Nc2ccc(C#N)cc2F)c[nH]1 [Cpd 262, 5-(4-chloro-2-methyl-phenyl)-N-(4-cyano-2-fluoro-phenyl)-1H-pyrrole-3-sulfonamide]
3 | 0.5 to 5 µM | Cc1cccc(-c2cc(S(=O)(=O)Nc3ccc(C#N)cc3F)c[nH]2)c1Cl [Cpd 263, 5-(2-chloro-3-methyl-phenyl)-N-(4-cyano-2-fluoro-phenyl)-1H-pyrrole-3-sulfonamide]
4 | 0.5 to 5 µM | Cc1ccc(-c2cc(S(=O)(=O)Nc3ccc(C#N)cc3F)c[nH]2)cc1F [Cpd 264, N-(4-cyano-2-fluoro-phenyl)-5-(3-fluoro-4-methyl-phenyl)-1H-pyrrole-3-sulfonamide]
5 | 0.5 to 5 µM | COc1cccc(Cl)c1-c1cc(S(=O)(=O)Nc2ccc(C#N)cc2F)c[nH]1 [Cpd 265, 5-(2-chloro-6-methoxy-phenyl)-N-(4-cyano-2-fluoro-phenyl)-1H-pyrrole-3-sulfonamide]
6 | < 0.5 µM | N#Cc1ccc(NS(=O)(=O)c2c[nH]c(-c3cccc(F)c3Cl)c2)c(F)c1 [Cpd 267, 5-(2-chloro-3-fluoro-phenyl)-N-(4-cyano-2-fluoro-phenyl)-1H-pyrrole-3-sulfonamide]
7 | 0.5 to 5 µM | COc1ccc(C)c(-c2cc(S(=O)(=O)Nc3ccc(C#N)cc3F)c[nH]2)c1 [Cpd 268, N-(4-cyano-2-fluoro-phenyl)-5-(5-methoxy-2-methyl-phenyl)-1H-pyrrole-3-sulfonamide]
8 | 0.5 to 5 µM | N#Cc1ccc(NS(=O)(=O)c2c[nH]c(-c3c(Cl)cccc3Cl)c2)c(F)c1 [Cpd 270, N-(4-cyano-2-fluoro-phenyl)-5-(2,6-dichlorophenyl)-1H-pyrrole-3-sulfonamide]
9 | < 0.5 µM | O=S(=O)(Nc1cc(F)c(OC(F)F)cc1F)c1c[nH]cc1Cc1ccccc1 [Cpd 271, 4-benzyl-N-[4-(difluoromethoxy)-2,5-difluoro-phenyl]-1H-pyrrole-3-sulfonamide]
10 | < 0.5 µM | O=S(=O)(Nc1cc(F)c(C(F)(F)F)cc1F)c1c[nH]c(-c2cccs2)c1 [Cpd 272, N-[2,5-difluoro-4-(trifluoromethyl)phenyl]-5-(2-thienyl)-1H-pyrrole-3-sulfonamide]
11 | 0.5 to 5 µM | Cc1ccc(-c2cc(S(=O)(=O)Nc3cc(F)c(C(F)(F)F)cc3F)c[nH]2)s1 [Cpd 274, N-[2,5-difluoro-4-(trifluoromethyl)phenyl]-5-(5-methyl-2-thienyl)-1H-pyrrole-3-sulfonamide]
12 | < 0.5 µM | O=S(=O)(Nc1cc(F)c(C(F)(F)F)cc1F)c1c[nH]c(-c2ccco2)c1 [Cpd 275, N-[2,5-difluoro-4-(trifluoromethyl)phenyl]-5-(2-furyl)-1H-pyrrole-3-sulfonamide]
13 | < 0.5 µM | O=S(=O)(Nc1cc(F)c(C(F)(F)F)cc1F)c1c[nH]c(-c2ccoc2)c1 [Cpd 276, N-(2,5-difluoro-4-(trifluoromethyl)phenyl)-5-(furan-3-yl)-1H-pyrrole-3-sulfonamide]
14 | 0.5 to 5 µM | Cc1cccc(-c2cc(S(=O)(=O)Nc3cc(F)c(C(F)(F)F)cc3F)c[nH]2)n1 [Cpd 279, N-[2,5-difluoro-4-(trifluoromethyl)phenyl]-5-(6-methyl-2-pyridyl)-1H-pyrrole-3-sulfonamide]
15 | 0.5 to 5 µM | Cc1ccc(-c2cc(S(=O)(=O)Nc3cc(F)c(C(F)(F)F)cc3F)c[nH]2)nc1 [Cpd 280, N-[2,5-difluoro-4-(trifluoromethyl)phenyl]-5-(5-methyl-2-pyridyl)-1H-pyrrole-3-sulfonamide]
16 | 5 to 50 µM | O=S(=O)(Nc1cc(F)c(C(F)(F)F)cc1F)c1c[nH]c(-c2ncccc2C(F)(F)F)c1 [Cpd 282, N-[2,5-difluoro-4-(trifluoromethyl)phenyl]-5-[3-(trifluoromethyl)-2-pyridyl]-1H-pyrrole-3-sulfonamide]
17 | 5 to 50 µM | COc1cccc(-c2cc(S(=O)(=O)Nc3ccc(C#N)cc3F)c[nH]2)c1C [Cpd 283, N-(4-cyano-2-fluoro-phenyl)-5-(3-methoxy-2-methyl-phenyl)-1H-pyrrole-3-sulfonamide]
18 | 0.5 to 5 µM | N#Cc1ccc(NS(=O)(=O)c2c[nH]c(-c3ccc(F)c(Cl)c3)c2)c(F)c1 [Cpd 284, 5-(3-chloro-4-fluoro-phenyl)-N-(4-cyano-2-fluoro-phenyl)-1H-pyrrole-3-sulfonamide]
19 | 0.5 to 5 µM | Cc1cc(NS(=O)(=O)c2c[nH]c(-c3ccccn3)c2)c(F)cc1C#N [Cpd 286, N-(4-cyano-2-fluoro-5-methyl-phenyl)-5-(2-pyridyl)-1H-pyrrole-3-sulfonamide]
20 | 0.5 to 5 µM | N#Cc1ccc(NS(=O)(=O)c2c[nH]c(-c3ccc(Cl)c(F)c3)c2)c(F)c1 [Cpd 287, 5-(4-chloro-3-fluoro-phenyl)-N-(4-cyano-2-fluoro-phenyl)-1H-pyrrole-3-sulfonamide]
21 | < 0.5 µM | COc1c(F)cccc1-c1cc(S(=O)(=O)Nc2ccc(C#N)cc2F)c[nH]1 [Cpd 290, N-(4-cyano-2-fluoro-phenyl)-5-(3-fluoro-2-methoxy-phenyl)-1H-pyrrole-3-sulfonamide]
22 | 0.5 to 5 µM | N#Cc1ccc(NS(=O)(=O)c2c[nH]c(-c3ccc(F)c(F)c3)c2)c(F)c1 [Cpd 291, N-(4-cyano-2-fluoro-phenyl)-5-(3,4-difluorophenyl)-1H-pyrrole-3-sulfonamide]
23 | 0.5 to 5 µM | COc1cc(F)cc(-c2cc(S(=O)(=O)Nc3ccc(C#N)cc3F)c[nH]2)c1 [Cpd 299, N-(4-cyano-2-fluoro-phenyl)-5-(3-fluoro-5-methoxy-phenyl)-1H-pyrrole-3-sulfonamide]

Continued, compound first:

Row | Structure (SMILES) | IC50
24 | N#Cc1ccc(NS(=O)(=O)c2c[nH]c(-c3ccc(Cl)cc3Cl)c2)c(F)c1 [Cpd 261, N-(4-cyano-2-fluoro-phenyl)-5-(2,4-dichlorophenyl)-1H-pyrrole-3-sulfonamide] | 0.5 to 5 µM
25 | COc1cccc(-c2cc(S(=O)(=O)Nc3ccc(C#N)cc3F)c[nH]2)c1Cl [Cpd 266, 5-(2-chloro-3-methoxy-phenyl)-N-(4-cyano-2-fluoro-phenyl)-1H-pyrrole-3-sulfonamide] | 5 to 50 µM
26 | Cc1cc(-c2cc(S(=O)(=O)Nc3ccc(C#N)cc3F)c[nH]2)ccc1F [Cpd 269, N-(4-cyano-2-fluoro-phenyl)-5-(4-fluoro-3-methyl-phenyl)-1H-pyrrole-3-sulfonamide] | < 0.5 µM
27 | O=S(=O)(Nc1cc(F)c(C(F)(F)F)cc1F)c1c[nH]c(-c2ccsc2)c1 [Cpd 273, N-[2,5-difluoro-4-(trifluoromethyl)phenyl]-5-(3-thienyl)-1H-pyrrole-3-sulfonamide] | < 0.5 µM
28 | Cn1cncc1-c1cc(S(=O)(=O)Nc2cc(F)c(C(F)(F)F)cc2F)c[nH]1 [Cpd 277, N-[2,5-difluoro-4-(trifluoromethyl)phenyl]-5-(3-methylimidazol-4-yl)-1H-pyrrole-3-sulfonamide] | 0.5 to 5 µM
29 | O=S(=O)(Nc1cc(F)c(C(F)(F)F)cc1F)c1c[nH]c(-c2ccsn2)c1 [Cpd 278, N-[2,5-difluoro-4-(trifluoromethyl)phenyl]-5-isothiazol-3-yl-1H-pyrrole-3-sulfonamide] | < 0.5 µM
30 | COc1cccc(-c2cc(S(=O)(=O)Nc3cc(F)c(C(F)(F)F)cc3F)c[nH]2)n1 [Cpd 281, N-[2,5-difluoro-4-(trifluoromethyl)phenyl]-5-(6-methoxy-2-pyridyl)-1H-pyrrole-3-sulfonamide] | < 0.5 µM
31 | Cc1ccc(F)cc1-c1cc(S(=O)(=O)Nc2ccc(C#N)cc2F)c[nH]1 [Cpd 285, N-(4-cyano-2-fluoro-phenyl)-5-(5-fluoro-2-methyl-phenyl)-1H-pyrrole-3-sulfonamide] | < 0.5 µM
32 | Cc1cc(F)cc(-c2cc(S(=O)(=O)Nc3ccc(C#N)cc3F)c[nH]2)c1 [Cpd 288, N-(4-cyano-2-fluoro-phenyl)-5-(3-fluoro-5-methyl-phenyl)-1H-pyrrole-3-sulfonamide] | 0.5 to 5 µM
33 | N#Cc1ccc(NS(=O)(=O)c2c[nH]c(-c3c(F)cccc3Cl)c2)c(F)c1 [Cpd 289, 5-(2-chloro-6-fluoro-phenyl)-N-(4-cyano-2-fluoro-phenyl)-1H-pyrrole-3-sulfonamide] | < 0.5 µM
34 | N#Cc1ccc(NS(=O)(=O)c2c[nH]c(-c3cccc(Cl)c3Cl)c2)c(F)c1 [Cpd 292, N-(4-cyano-2-fluoro-phenyl)-5-(2,3-dichlorophenyl)-1H-pyrrole-3-sulfonamide] | 0.5 to 5 µM
35 | Cc1ccc(-c2cc(S(=O)(=O)Nc3cc(F)c(C(F)(F)F)cc3F)c[nH]2)c(F)c1 [Cpd 293, N-[2,5-difluoro-4-(trifluoromethyl)phenyl]-5-(2-fluoro-4-methyl-phenyl)-1H-pyrrole-3-sulfonamide] | 5 to 50 µM
36 | COc1ccc(-c2cc(S(=O)(=O)Nc3cc(F)c(C(F)(F)F)cc3F)c[nH]2)cc1 [Cpd 294, N-[2,5-difluoro-4-(trifluoromethyl)phenyl]-5-(4-methoxyphenyl)-1H-pyrrole-3-sulfonamide] | 5 to 50 µM
37 | Cc1ccc(-c2cc(S(=O)(=O)Nc3cc(F)c(C(F)(F)F)cc3F)c[nH]2)cc1 [Cpd 295, N-[2,5-difluoro-4-(trifluoromethyl)phenyl]-5-(p-tolyl)-1H-pyrrole-3-sulfonamide] | 5 to 50 µM
38 | Cc1ccc(Cl)cc1-c1cc(S(=O)(=O)Nc2ccc(C#N)cc2F)c[nH]1 [Cpd 296, 5-(5-chloro-2-methyl-phenyl)-N-(4-cyano-2-fluoro-phenyl)-1H-pyrrole-3-sulfonamide] | 0.5 to 5 µM
39 | O=S(=O)(Nc1cc(F)c(C(F)(F)F)cc1F)c1c[nH]c(-c2ccc(Cl)cc2)c1 [Cpd 297, 5-(4-chlorophenyl)-N-[2,5-difluoro-4-(trifluoromethyl)phenyl]-1H-pyrrole-3-sulfonamide] | 5 to 50 µM
40 | COc1ccccc1-c1cc(S(=O)(=O)Nc2cc(F)c(C(F)(F)F)cc2F)c[nH]1 [Cpd 298, N-[2,5-difluoro-4-(trifluoromethyl)phenyl]-5-(2-methoxyphenyl)-1H-pyrrole-3-sulfonamide] | 0.5 to 5 µM
